Reference: US20260258035A1, “FIVE-MEMBERED AND SIX-MEMBERED NITROGEN-CONTAINING COMPOUND, AND INTERMEDIATE, PREPARATION METHOD AND USE THEREOF” (HANGZHOU SYNRX THERAPEUTICS BIOMEDICAL TECHNOLOGY CO., LTD., priority 2022, published 2026)

Legend:
HCC1806 = assay: Cell viability assay (CellTiter-Glo); type: cell-based, Human; settings: Homo sapiens, HCC1806, 168 h, HCC1806, 7 days, CellTiter-Glo; read-out: IC50 (nM) in cell viability assay
PARG = PARG (Homo sapiens, UniProt Q86W56); assay: Biochemical assay (PARG, TFMU-ADPr substrate)
Sequence of PARG (Q86W56 whole entry): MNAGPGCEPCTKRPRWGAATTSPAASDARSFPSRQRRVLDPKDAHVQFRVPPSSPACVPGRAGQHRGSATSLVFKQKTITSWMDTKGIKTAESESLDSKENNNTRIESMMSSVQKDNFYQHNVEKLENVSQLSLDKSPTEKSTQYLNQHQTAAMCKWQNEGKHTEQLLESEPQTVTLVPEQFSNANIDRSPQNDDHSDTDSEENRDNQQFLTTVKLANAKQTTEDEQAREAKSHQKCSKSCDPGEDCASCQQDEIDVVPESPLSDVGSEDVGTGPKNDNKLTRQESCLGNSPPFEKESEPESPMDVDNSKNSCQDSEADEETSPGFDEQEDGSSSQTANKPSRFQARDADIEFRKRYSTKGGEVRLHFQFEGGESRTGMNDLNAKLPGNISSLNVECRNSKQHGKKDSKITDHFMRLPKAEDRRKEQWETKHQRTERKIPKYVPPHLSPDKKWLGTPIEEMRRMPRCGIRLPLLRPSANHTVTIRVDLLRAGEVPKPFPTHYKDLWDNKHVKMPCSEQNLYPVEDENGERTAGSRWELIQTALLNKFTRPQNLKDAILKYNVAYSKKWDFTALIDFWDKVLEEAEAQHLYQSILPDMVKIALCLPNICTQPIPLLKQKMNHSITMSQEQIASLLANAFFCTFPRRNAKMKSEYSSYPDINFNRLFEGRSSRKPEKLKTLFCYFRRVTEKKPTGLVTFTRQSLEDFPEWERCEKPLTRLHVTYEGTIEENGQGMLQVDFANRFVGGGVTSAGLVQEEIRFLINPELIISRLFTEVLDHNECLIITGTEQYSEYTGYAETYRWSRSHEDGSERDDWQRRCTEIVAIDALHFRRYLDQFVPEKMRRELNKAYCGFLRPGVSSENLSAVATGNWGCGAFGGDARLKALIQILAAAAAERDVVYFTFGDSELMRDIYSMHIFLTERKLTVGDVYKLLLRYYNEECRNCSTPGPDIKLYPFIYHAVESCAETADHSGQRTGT

SMILES	IC50 (HCC1806) [nM]	IC50 (PARG; PARG, TFMU-ADPr substrate) [nM]	IC50 (PARG; 4 nM PARG, 66.2 uM TFMU-ADPr, 3 min at room temperature) [nM]
COC1(C(=O)N2CCN(c3c(F)c(S(=O)(=O)NC4(C)CC4)cn4c(-c5nnc(C(F)F)s5)ncc34)CC2)CC1 [Example 198, 3-(5-(difluoromethyl)-1,3,4-thiadiazol-2-yl)-7-fluoro-8-(4-(1-methoxycyclopropane-1-carbonyl)piperazin-1-yl)-N-(1-methylcyclopropyl)imidazo[1,5-a]pyridine-6-sulfonamide]	27.8	0.66	–
CN(C)CCN(C)C(=O)N1CCN(c2cc(S(=O)(=O)NC3(C)COC3)cn3c(-c4nnc(C(F)F)s4)nc(Cl)c23)CC1 [Example 188, 4-(1-chloro-3-(5-(difluoromethyl)-1,3,4-thiadiazol-2-yl)-6-(N-(3-methyloxetan-3-yl)sulfamoyl)imidazo[1,5-a]pyridin-8-yl)-N-(2-(dimethylamino)ethyl)-N-methylpiperazine-1-carboxamide]	85	0.71	–
CC(C)C(=O)N1CCN(c2cc(S(=O)(=O)NC3(C)CN(C)C3)cn3c(-c4nnc(C(F)F)s4)ncc23)CC1 [Example 51, 3-(5-(difluoromethyl)-1,3,4-thiadiazol-2-yl)-N-(1,3-dimethylazetidin-3-yl)-8-(4-isobutyrylpiperazin-1-yl)imidazo[1,5-a]pyridine-6-sulfonamide]	> 30000	–	> 1000
C[C@H]1CN(c2cc(S(=O)(=O)NC3(C)COC3)cn3c(-c4nnc(C(F)(F)F)s4)nc(Cl)c23)C[C@H](C)N1 [Example 125, 1-chloro-8-((3S,5S)-3,5-dimethylpiperazin-1-yl)-N-(3-methyloxetan-3-yl)-3-(5-(trifluoromethyl)-1,3,4-thiadiazol-2-yl)imidazo[1,5-a]pyridine-6-sulfonamide]	518	31.2	–
CC(C)C(=O)N1CCN(c2cc(S(=O)(=O)NC3(C)COC3)cn3c(-c4nnc(C(F)(F)F)s4)ncc23)C[C@H]1C [Example 174, (R)-8-(4-isobutyryl-3-methylpiperazin-1-yl)-N-(3-methyloxetan-3-yl)-3-(5-(trifluoromethyl)-1,3,4-thiadiazol-2-yl)imidazo[1,5-a]pyridine-6-sulfonamide]	856	5.01	–
CC(C)C(=O)N1CCN(c2cc(S(=O)(=O)NC3(C#N)CC3)cn3c(-c4nnc(C(F)(F)F)s4)nc(Cl)c23)C[C@H]1C [Example 130, (R)-1-chloro-N-(1-cyanocyclopropyl)-8-(4-isobutyryl-3-methylpiperazin-1-yl)-3-(5-(trifluoromethyl)-1,3,4-thiadiazol-2-yl)imidazo[1,5-a]pyridine-6-sulfonamide]	1200	36.3	–
C[C@H]1CN(c2cc(S(=O)(=O)NC3(C)COC3)cn3c(-c4nnc(C(F)F)s4)ncc23)C[C@H](CN(C)C)O1 [Example 398, 3-(5-(difluoromethyl)-1,3,4-thiadiazol-2-yl)-8-((2S,6S)-2-((dimethylamino)methyl)-6-methylmorpholino)-N-(3-methyloxetan-3-yl)imidazo[1,5-a]pyridine-6-sulfonamide]	992	27.5	–
COC1CN(c2cc(S(=O)(=O)NC3(C)CC3)cn3c(-c4nnc(C(F)F)s4)ncc23)CCC1O (stereo not shown) [Example 348, 3-(5-(difluoromethyl)-1,3,4-thiadiazol-2-yl)-8-(4-hydroxy-3-methoxypiperidin-1-yl)-N-(1-methylcyclopropyl)imidazo[1,5-a]pyridine-6-sulfonamide]	257	1.99	–

Next, values leading:

IC50 (HCC1806) [nM]	IC50 (PARG; PARG, TFMU-ADPr substrate) [nM]	IC50 (PARG; 4 nM PARG, 66.2 uM TFMU-ADPr, 3 min at room temperature) [nM]	SMILES
1020	13.8	–	CC(C)(F)C(=O)N1CCN(c2cc(S(=O)(=O)NC3(C#N)CC3)cn3c(-c4nnc(C(F)(F)F)s4)ncc23)CC1 [Example 224, N-(1-cyanocyclopropyl)-8-(4-(2-fluoro-2-methylpropanoyl)piperazin-1-yl)-3-(5-(trifluoromethyl)-1,3,4-thiadiazol-2-yl)imidazo[1,5-a]pyridine-6-sulfonamide]
800	3.31	–	N#CC1(NS(=O)(=O)c2cc(N3CCN(C(=O)N4CCCC4)CC3)c3cnc(-c4nnc(C(F)(F)F)s4)n3c2)CC1 [Example 229, N-(1-cyanocyclopropyl)-8-(4-(pyrrolidine-1-carbonyl)piperazin-1-yl)-3-(5-(trifluoromethyl)-1,3,4-thiadiazol-2-yl)imidazo[1,5-a]pyridine-6-sulfonamide]
472	22.9	–	CNC1(C(=O)N2CCN(c3cc(S(=O)(=O)NC4(C#N)CC4)cn4c(-c5nnc(C(F)(F)F)s5)ncc34)CC2)CC1 [Example 275, N-(1-cyanocyclopropyl)-8-(4-(1-(methylamino)cyclopropane-1-carbonyl)piperazin-1-yl)-3-(5-(trifluoromethyl)-1,3,4-thiadiazol-2-yl)imidazo[1,5-a]pyridine-6-sulfonamide]
434	12.6	–	CN1CC(F)(F)C[C@@H]1C(=O)N1CCN(c2cc(S(=O)(=O)NC3(C)CC3)cn3c(-c4nnc(C(F)(F)F)s4)ncc23)CC1 [Example 353, (R)-8-(4-(4,4-difluoro-1-methylpyrrolidine-2-carbonyl)piperazin-1-yl)-N-(1-methylcyclopropyl)-3-(5-(trifluoromethyl)-1,3,4-thiadiazol-2-yl)imidazo[1,5-a]pyridine-6-sulfonamide]
1030	24	–	CC1(C(=O)N2CCN(c3cc(S(=O)(=O)NC4(C#N)CC4)cn4c(-c5nnc(C(F)(F)F)s5)ncc34)CC2)COC1 [Example 299, N-(1-cyanocyclopropyl)-8-(4-(3-methyloxetane-3-carbonyl)piperazin-1-yl)-3-(5-(trifluoromethyl)-1,3,4-thiadiazol-2-yl)imidazo[1,5-a]pyridine-6-sulfonamide]
163	4.13	–	CN1CCC(F)(F)C1C(=O)N1CCN(c2cc(S(=O)(=O)NC3(C)CC3)cn3c(-c4nnc(C(F)(F)F)s4)ncc23)CC1 (stereo not shown) [Example 351, 8-(4-(3,3-difluoro-1-methylpyrrolidine-2-carbonyl)piperazin-1-yl)-N-(1-methylcyclopropyl)-3-(5-(trifluoromethyl)-1,3,4-thiadiazol-2-yl)imidazo[1,5-a]pyridine-6-sulfonamide]
38.7	3.02	–	COC(C)(C)C(=O)N1CCN(c2cc(S(=O)(=O)NC3(C#N)CC3)cn3c(-c4nnc(C(F)(F)F)s4)ncc23)CC1 [Example 296, N-(1-cyanocyclopropyl)-8-(4-(2-methoxy-2-methylpropanoyl)piperazin-1-yl)-3-(5-(trifluoromethyl)-1,3,4-thiadiazol-2-yl)imidazo[1,5-a]pyridine-6-sulfonamide]
4850	26.3	–	N#CC1(NS(=O)(=O)c2cc(N3CCN(C(=O)C4COC4)CC3)c3cnc(-c4nnc(C(F)(F)F)s4)n3c2)CC1 [Example 226, N-(1-cyanocyclopropyl)-8-(4-(oxetane-3-carbonyl)piperazin-1-yl)-3-(5-(trifluoromethyl)-1,3,4-thiadiazol-2-yl)imidazo[1,5-a]pyridine-6-sulfonamide]
181	5.41	–	CC1(NS(=O)(=O)c2cc(N3CCN(C(=O)[C@H]4C[C@H](F)CN4)CC3)c3cnc(-c4nnc(C(F)(F)F)s4)n3c2)CC1 [Example 323, 8-(4-((2R,4S)-4-fluoropyrrolidine-2-carbonyl)piperazin-1-yl)-N-(1-methylcyclopropyl)-3-(5-(trifluoromethyl)-1,3,4-thiadiazol-2-yl)imidazo[1,5-a]pyridine-6-sulfonamide]
